The structures appear in SMILES notation.

The test concerns the target T1, haematopoietic prostaglandin D synthase (H-PGDS) (Homo sapiens, UniProt O60760).
T1 construct: Full length human H-PGDS cDNA (Invitrogen Ultimate ORF 10H13026) was amplified by PCR; 6-His (N); TEV protease cleavage site (N); made in house; host or cells: E. coli BL21 (DE3*), vector pET22b+
The test is described as follows: H-PGDS RapidFire high throughput mass spectrometry assay (conversion of PGH2 to PGD2). The format is biochemical. As to conditions: 10 nM H-PGDS, PGH2 formed in situ by COX-2 from arachidonic acid; read-out: Potency Range (mean pIC50) (converted). In a few lines:
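PGH2 substrate generated in situ by COX-2 (full-length human, FLAG-tagged, Sf9-expressed) from arachidonic acid at ˜10 μM, then converted by full-length human His-tagged H-PGDS (E. coli-expressed). RapidFire SPE–triple quadrupole MS measured PGD2 against PGF2α as substrate surrogate to give percent conversion.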

T1 sequence (O60760 whole entry): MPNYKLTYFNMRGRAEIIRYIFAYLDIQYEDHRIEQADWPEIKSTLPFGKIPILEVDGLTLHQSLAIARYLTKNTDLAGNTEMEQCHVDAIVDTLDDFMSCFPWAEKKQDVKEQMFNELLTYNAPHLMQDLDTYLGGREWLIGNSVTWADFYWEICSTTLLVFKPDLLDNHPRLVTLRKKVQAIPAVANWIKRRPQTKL

As for `COc1ccc(F)cc1O[C@H]1C[C@H](C(=O)Nc2nnc(C)s2)C1` [Example 166, (trans)-3-(5-Fluoro-2-methoxyphenoxy)-N-(5-methyl-1,3,4-thiadiazol-2-yl)cyclobutanecarboxamide], the IC50 was 0.01 to 0.0794 µM. With `COc1ccc(F)cc1O[C@H]1C[C@H](C(=O)NC2CCN(c3cc(C#N)ccn3)C2)C1` (mixture of isomers) [Example 145, Racemic (trans)-N-(1-(4-Cyanopyridin-2-yl)pyrrolidin-3-yl)-3-(5-fluoro-2-methoxyphenoxy)cyclobutanecarboxamide] the figure was 0.01 to 0.0794 µM; with `O=C(NC1CN(c2ncc(F)cn2)C1)[C@H]1C[C@H](Oc2cc(F)cc3scnc23)C1` [Example 136, (trans)-3-((6-Fluorobenzo[d]thiazol-4-yl)oxy)-N-(1-(5-fluoropyrimidin-2-yl)azetidin-3-yl)cyclobutanecarboxamide], 0.01 to 0.0794 µM. On to `CC(C)(O)[C@H]1CC[C@H](NC(=O)[C@H]2C[C@H](Oc3cccc4cncnc34)C2)CC1` [Example 296, (trans)-N-((trans)-4-(2-Hydroxypropan-2-yl)cyclohexyl)-3-(quinazolin-8-yloxy)cyclobutanecarboxamide], for which the IC50 was 0.1 to 1 µM. For the molecule `O=C(NC1CN(c2ncccn2)C1)N1CC(Oc2cc(F)cc3scnc23)C1` [Example 129, 3-((6-Fluorobenzo[d]thiazol-4-yl)oxy)-N-(1-(pyrimidin-2-yl)azetidin-3-yl)azetidine-1-carboxamide], the IC50 was 0.01 to 0.0794 µM. For the molecule `O=C(Nc1ccn[nH]1)[C@H]1C[C@H](Oc2cccc3scnc23)C1` [Example 301], the IC50 is 0.1 to 1 µM. With `CC(O)([C@H]1CC[C@H](NC(=O)[C@H]2C[C@H](Oc3cc(F)ccc3OC(F)F)C2)CC1)C(F)(F)F` (mixture of isomers) [Example 28, Racemic (trans)-3-(2-(Difluoromethoxy)-5-fluorophenoxy)-N-((trans)-4-(1,1,1-trifluoro-2-hydroxypropan-2-yl)cyclohexyl)cyclobutanecarboxamide] the figure was 0.01 to 0.0794 µM; with `NC(=O)c1ccc(N2CC(NC(=O)[C@H]3C[C@H](Oc4cc(F)cc5scnc45)C3)C2)nc1` [Example 110, 6-(3-((trans)-3-(6-Fluorobenzo[d]thiazol-4-yloxy)cyclobutanecarboxamido)azetidin-1-yl)nicotinamide], 0.01 to 0.0794 µM. For `COc1ccccc1O[C@H]1C[C@H](C(=O)N[C@H]2CC[C@H](C(C)(C)O)CC2)C1` [Example 284, (trans)-N-((trans)-4-(2-hydroxypropan-2-yl)cyclohexyl)-3-(2-methoxyphenoxy)cyclobutanecarboxamide], the IC50 is 0.01 to 0.0794 µM.

Regarding `O=C(Nc1cncnc1)[C@H]1C[C@H](Oc2cc(F)ccc2OC(F)F)C1` [Example 22, (trans)-3-(2-(Difluoromethoxy)-5-fluorophenoxy)-N-(pyrimidin-5-yl)cyclobutanecarboxamide], the IC50 was 0.1 to 1 µM. With `O=C(NC1CN(c2ncccn2)C1)[C@H]1C[C@H](Oc2cccc3scnc23)C1` [Example 80, (trans)-3-(Benzo[d]thiazol-4-yloxy)-N-(1-(pyrimidin-2-yl)azetidin-3-yl)cyclobutanecarboxamide] the figure was 0.01 to 0.0794 µM. As for `COc1ccc(F)cc1O[C@H]1C[C@H](C(=O)Nc2ncc(C(C)=O)s2)C1` [Example 164, (trans)-N-(5-Acetylthiazol-2-yl)-3-(5-fluoro-2-methoxyphenoxy)cyclobutanecarboxamide], the IC50 is below 0.01 µM.

For `CC(C)(O)C1CC2(CC(NC(=O)[C@H]3C[C@H](Oc4cccc5scnc45)C3)C2)C1` (mixture of isomers) [Example 83, Racemic (trans)-3-(Benzo[d]thiazol-4-yloxy)-N-(6-(2-hydroxypropan-2-yl)spiro[3.3]heptan-2-yl)cyclobutanecarboxamide], the IC50 was 0.01 to 0.0794 µM. With `O=C(NCc1cccs1)[C@H]1C[C@H](Oc2cccc3scnc23)C1` [Example 250] the figure was 0.1 to 1 µM; with `O=C(NC1CCN(c2ccccn2)C1)N1CC(Oc2cccc3scnc23)C1` (racemic) [Example 87, Racemic 3-(Benzo[d]thiazol-4-yloxy)-N-(1-(pyridin-2-yl)pyrrolidin-3-yl)azetidine-1-carboxamide], 0.1 to 1 µM.

As to `CC(C)c1nnc(NC(=O)N2CC(Oc3cccc4scnc34)C2)s1` [Example 334, 3-(Benzo[d]thiazol-4-yloxy)-N-(5-isopropyl-1,3,4-thiadiazol-2-yl)azetidine-1-carboxamide], the IC50 is 0.01 to 0.0794 µM.

In the case of `Cc1coc2c(O[C@H]3C[C@H](C(=O)N[C@H]4CC[C@H](C(C)(C)O)CC4)C3)cccc12` [Example 270, (trans)-N-((trans)-4-(2-Hydroxypropan-2-yl)cyclohexyl)-3-((3-methylbenzofuran-7-yl)oxy)cyclobutanecarboxamide], the IC50 is 0.1 to 1 µM. For the molecule `O=C(NC1CCN(CC(F)(F)F)CC1)N1CC(Oc2cccc3scnc23)C1` [Example 91, 3-(Benzo[d]thiazol-4-yloxy)-N-(1-(2,2,2-trifluoroethyl)piperidin-4-yl)azetidine-1-carboxamide], the IC50 is 0.01 to 0.0794 µM. On to `Cc1cnc(N2CC(NC(=O)[C@H]3C[C@H](Oc4cccc5scnc45)C3)C2)nc1` [Example 39, (trans)-3-(Benzo[d]thiazol-4-yloxy)-N-(1-(5-methylpyrimidin-2-yl)azetidin-3-yl)cyclobutanecarboxamide], for which the IC50 was 0.01 to 0.0794 µM. With `O=C(Nc1nccs1)[C@H]1C[C@H](Oc2cccc3cc(F)cnc23)C1` [Example 281, (trans)-3-((3-Fluoroquinolin-8-yl)oxy)-N-(thiazol-2-yl)cyclobutanecarboxamide] the figure was 0.01 to 0.0794 µM; with `O=C(NC1CN(c2cnccn2)C1)[C@H]1C[C@H](Oc2cccc3scnc23)C1` [Example 246, (trans)-3-(Benzo[d]thiazol-4-yloxy)-N-(1-(pyrazin-2-yl)azetidin-3-yl)cyclobutanecarboxamide], 0.01 to 0.0794 µM.

Regarding `O=C(NC1CN(c2ccnc(Cl)n2)C1)N1CC(Oc2cccc3scnc23)C1` [Example 60, 3-(Benzo[d]thiazol-4-yloxy)-N-(1-(2-chloropyrimidin-4-yl)azetidin-3-yl)azetidine-1-carboxamide], the IC50 is 0.01 to 0.0794 µM. With `Cc1nnc(NC(=O)[C@H]2C[C@H](Oc3cccc4scnc34)C2)s1` [Example 331, (trans)-3-(Benzo[d]thiazol-4-yloxy)-N-(5-methyl-1,3,4-thiadiazol-2-yl)cyclobutane-1-carboxamide] the figure was 0.01 to 0.0794 µM; with `COc1cncc(NC(=O)N2CC(Oc3cccc4scnc34)C2)c1` [Example 323, 3-(Benzo[d]thiazol-4-yloxy)-N-(5-methoxypyridin-3-yl)azetidine-1-carboxamide], 0.01 to 0.0794 µM; with `O=C(NC1CCCOC1)N1CC(Oc2cccc3scnc23)C1` (racemic) [Example 90, Racemic 3-(Benzo[d]thiazol-4-yloxy)-N-(tetrahydro-2H-pyran-3-yl)azetidine-1-carboxamide], 0.1 to 1 µM. With `Cc1nnc(NC(=O)[C@H]2C[C@H](Oc3cccc4scnc34)C2)o1` [Example 79, (trans)-3-(Benzo[d]thiazol-4-yloxy)-N-(5-methyl-1,3,4-oxadiazol-2-yl)cyclobutanecarboxamide], the IC50 is 0.1 to 1 µM. In the case of `CCOC(=O)c1coc(NC(=O)[C@H]2C[C@H](Oc3cccc4cccnc34)C2)n1` [Example 171, ethyl 2-((trans)-3-(quinolin-8-yloxy)cyclobutanecarboxamido)oxazole-4-carboxylate], the IC50 is 0.01 to 0.0794 µM. Consider `COc1ccc(F)cc1O[C@H]1C[C@H](C(=O)N[C@H]2CC[C@H](C(C)(C)O)CC2)C1` [Example 168, (trans)-3-(5-Fluoro-2-methoxyphenoxy)-N-((trans)-4-(2-hydroxypropan-2-yl)cyclohexyl)cyclobutanecarboxamide], for which the IC50 was 0.01 to 0.0794 µM. `CC(C)(O)[C@@H]1CC[C@@H](NC(=O)[C@H]2C[C@H](Oc3cc(F)cc4scnc34)C2)CO1` (racemic) [Example 139, Racemic (trans)-3-((6-Fluorobenzo[d]thiazol-4-yl)oxy)-N-((trans)-6-(2-hydroxypropan-2-yl)tetrahydro-2H-pyran-3-yl)cyclobutanecarboxamide]: the IC50 was 0.01 to 0.0794 µM. With `COCCNc1nccc(N2CC(NC(=O)[C@H]3C[C@H](Oc4cccc5scnc45)C3)C2)n1` [Example 72, (trans)-3-(Benzo[d]thiazol-4-yloxy)-N-(1-(2-((2-methoxyethyl)amino)pyrimidin-4-yl)azetidin-3-yl)cyclobutanecarboxamide] the figure was 0.1 to 1 µM; with `CN(C)C(=O)c1coc(NC(=O)[C@H]2C[C@H](Oc3cccc4cccnc34)C2)n1` [Example 172, N,N-Dimethyl-2-((trans)-3-(quinolin-8-yloxy)cyclobutanecarboxamido)oxazole-4-carboxamide], 0.01 to 0.0794 µM.

`CC(C)c1nnc(NC(=O)[C@H]2C[C@H](Oc3cccc4cccnc34)C2)s1` [Example 198]: the IC50 is 0.01 to 0.0794 µM.

With `CC(=O)c1coc(N2CC(NC(=O)[C@H]3C[C@H](Oc4cccc5scnc45)C3)C2)n1` [Example 47, (trans)-N-(1-(4-Acetyloxazol-2-yl)azetidin-3-yl)-3-(benzo[d]thiazol-4-yloxy)cyclobutanecarboxamide], the IC50 is 0.1 to 1 µM. `CC(C)(O)Cc1cnc(NC(=O)[C@H]2C[C@H](Oc3cccc4cccnc34)C2)s1` [Example 213, (trans)-N-(5-(2-Hydroxy-2-methylpropyl)thiazol-2-yl)-3-(quinolin-8-yloxy)cyclobutanecarboxamide]: the IC50 is 0.01 to 0.0794 µM.

Consider `Cc1csc(NC(=O)[C@H]2C[C@H](Oc3cccc4cccnc34)C2)n1` [Example 218, (trans)-N-(4-Methylthiazol-2-yl)-3-(quinolin-8-yloxy)cyclobutanecarboxamide], for which the IC50 was 0.01 to 0.0794 µM.

The values above are taken from patent US11053234B2 (GlaxoSmithKline Intellectual Property Development Limited, priority 2016, dated 2021).
